According to PubChem BioAssay AID248 (DTP/NCI, 2004):
Inconclusive results and toxic doses are left out. No stated cut-off is given here; in the data, active means T/C of 150% or more; inactive means T/C below 125%.

System: L1210 leukemia ip in BDF1 mice, survival T/C
Test: NCI In Vivo Anticancer Drug Screen. Data for tumor model L1210 Leukemia (intraperitoneal) in B6D2F1 (BDF1) mice
Conditions: endpoint: mean survival time, higher = longer survival
How it was run: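 Ratio derived from survival: compound-dosed mice over vehicle-dosed mice, all bearing a transplantable tumor.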

[1] = dose: 100.0 mg/kg/injection, schedule: Q01DX001 (ip), vehicle: other
[2] = dose: 200.0 mg/kg/injection, schedule: Q01DX001 (ip), vehicle: other
[3] = dose: 400.0 mg/kg/injection, schedule: Q01DX001 (ip), vehicle: other
[4] = dose: 100.0 mg/kg/injection, schedule: Q04DX002 (ip), vehicle: saline with Tween-80
[5] = dose: 200.0 mg/kg/injection, schedule: Q04DX002 (ip), vehicle: saline with Tween-80
[6] = dose: 400.0 mg/kg/injection, schedule: Q04DX002 (ip), vehicle: saline with Tween-80
[7] = dose: 100.0 mg/kg/injection, schedule: Q01DX001 (ip), vehicle: carboxymethylcellulose (CMC)
[8] = dose: 200.0 mg/kg/injection, schedule: Q01DX001 (ip), vehicle: carboxymethylcellulose (CMC)
[9] = dose: 400.0 mg/kg/injection, schedule: Q01DX001 (ip), vehicle: carboxymethylcellulose (CMC)
[10] = dose: 100.0 mg/kg/injection, schedule: Q04DX003 (ip), vehicle: saline with Tween-80
[11] = dose: 200.0 mg/kg/injection, schedule: Q04DX003 (ip), vehicle: saline with Tween-80
[12] = dose: 400.0 mg/kg/injection, schedule: Q04DX003 (ip), vehicle: saline with Tween-80
[13] = dose: 100.0 mg/kg/injection, schedule: Q01DX009 (ip), vehicle: Klucel (hydroxypropylcellulose) (HPC)
[14] = dose: 200.0 mg/kg/injection, schedule: Q01DX009 (ip), vehicle: Klucel (hydroxypropylcellulose) (HPC)
[15] = dose: 100.0 mg/kg/injection, schedule: Q04DX003 (ip), vehicle: Klucel (hydroxypropylcellulose) (HPC)
[16] = dose: 200.0 mg/kg/injection, schedule: Q04DX003 (ip), vehicle: Klucel (hydroxypropylcellulose) (HPC)
[17] = dose: 400.0 mg/kg/injection, schedule: Q04DX003 (ip), vehicle: Klucel (hydroxypropylcellulose) (HPC)
[18] = dose: 100.0 mg/kg/injection, schedule: Q01DX009 (ip), vehicle: saline
[19] = dose: 200.0 mg/kg/injection, schedule: Q01DX009 (ip), vehicle: saline
[20] = dose: 400.0 mg/kg/injection, schedule: Q01DX009 (ip), vehicle: saline

Measured: T/C

O=CNCc1cnccn1
inactive: dose: 100.0 mg/kg/injection, schedule: Q01DX009 (ip), vehicle: saline with Tween-80 93 % of control | dose: 200.0 mg/kg/injection, schedule: Q01DX009 (ip), vehicle: saline with Tween-80 95 % of control | dose: 400.0 mg/kg/injection, schedule: Q01DX009 (ip), vehicle: saline with Tween-80 97 % of control

Oc1ccccc1C=NCCN=Cc1ccccc1O.[Cu]
inactive: [1] 97 % of control | dose: 100.0 mg/kg/injection, schedule: Q04DX002 (ip), vehicle: saline 99 % of control | [2] 103 % of control | dose: 200.0 mg/kg/injection, schedule: Q04DX002 (ip), vehicle: saline 99 % of control | [3] 94 % of control | dose: 400.0 mg/kg/injection, schedule: Q04DX002 (ip), vehicle: saline 96 % of control

CS(=O)(=O)CCN1C(=O)C2C3CCC(O3)C2C1=O (stereo unspecified)
inactive: [4] 112 % of control | [5] 108 % of control | [6] 97 % of control

CC(=O)c1cccc(OC(=O)Oc2cccc(C(C)=O)c2)c1
inactive: [7] 95 % of control | [8] 90 % of control | [9] 95 % of control

C[N+](C)(C)CCCN1c2ccccc2S(=O)c2ccc(Cl)cc21 (stereo unspecified)
inactive: [7] 100 % of control | [8] 103 % of control | [9] 103 % of control

COc1cc(C(=O)O)c(Cc2ccccc2)c(OC)c1O
inactive: dose: 5.0 mg/kg/injection, schedule: Q01DX001 (ip), vehicle: saline 95 % of control | dose: 10.0 mg/kg/injection, schedule: Q01DX001 (ip), vehicle: saline 97 % of control | dose: 20.0 mg/kg/injection, schedule: Q01DX001 (ip), vehicle: saline 95 % of control | dose: 40.0 mg/kg/injection, schedule: Q01DX001 (ip), vehicle: saline 95 % of control | dose: 80.0 mg/kg/injection, schedule: Q01DX001 (ip), vehicle: saline 95 % of control

CC(C)(C)C(=O)CC(=O)C(C)(C)C.CC(C)(C)C(=O)CC(=O)C(C)(C)C.[Zn]
inactive: [10] 97 % of control | [11] 95 % of control

O=[N+]([O-])c1ccc(OCc2ccc(S(=O)(=O)F)cc2)c(Cl)c1
inactive: dose: 100.0 mg/kg/injection, schedule: Q04DX003 (ip), vehicle: other 97 % of control | dose: 200.0 mg/kg/injection, schedule: Q04DX003 (ip), vehicle: other 97 % of control | dose: 400.0 mg/kg/injection, schedule: Q04DX003 (ip), vehicle: other 92 % of control

CCCCCCCC(=O)NC1CCC(C(C)(C)C)CC1 (stereo unspecified)
inactive: dose: 100.0 mg/kg/injection, schedule: Q01DX009 (ip), vehicle: other 100 % of control | dose: 200.0 mg/kg/injection, schedule: Q01DX009 (ip), vehicle: other 97 % of control | dose: 400.0 mg/kg/injection, schedule: Q01DX009 (ip), vehicle: other 106 % of control

CCCCCC(C)(C1=NC(C)(C)CC(C)O1)c1ccccc1 (stereo unspecified)
inactive: dose: 100.0 mg/kg/injection, schedule: Q01DX009 (ip), vehicle: saline sonified 93 % of control | dose: 200.0 mg/kg/injection, schedule: Q01DX009 (ip), vehicle: saline sonified 104 % of control | dose: 400.0 mg/kg/injection, schedule: Q01DX009 (ip), vehicle: saline sonified 93 % of control

CC(C)(O)C/C=C/c1ccccc1
inactive: [10] 103 % of control | [11] 103 % of control | [12] 106 % of control

O=S(=O)(C1CC1)C1CC1
inactive: [4] 94 % of control | [5] 103 % of control | [6] 94 % of control

ClCCN=Cc1ccc(Cl)cc1
inactive: [13] 96 % of control | dose: 100.0 mg/kg/injection, schedule: Q04DX002 (ip), vehicle: Klucel (hydroxypropylcellulose) (HPC) 96 % of control | [14] 91 % of control | dose: 200.0 mg/kg/injection, schedule: Q04DX002 (ip), vehicle: Klucel (hydroxypropylcellulose) (HPC) 100 % of control | dose: 400.0 mg/kg/injection, schedule: Q01DX009 (ip), vehicle: Klucel (hydroxypropylcellulose) (HPC) 96 % of control | dose: 400.0 mg/kg/injection, schedule: Q04DX002 (ip), vehicle: Klucel (hydroxypropylcellulose) (HPC) 100 % of control

O=C(Nc1ccccn1)Nc1ccccn1
inactive: [13] 104 % of control | [15] 98 % of control | [14] 104 % of control | [16] 87 % of control | [17] 106 % of control

O=C(NNC(=O)c1ccccc1O)c1ccccc1
inactive: [4] 93 % of control | [5] 93 % of control | [6] 97 % of control

NC1C2C3C=CC(C3)C12 (stereo unspecified)
inactive: [18] 107 % of control | [19] 100 % of control

CC1C[N+](C)(C)NC1=O (stereo unspecified)
inactive: dose: 100.0 mg/kg/injection, schedule: Q01DX001 (ip), vehicle: saline 98 % of control | [18] 103 % of control | dose: 200.0 mg/kg/injection, schedule: Q01DX001 (ip), vehicle: saline 103 % of control | [19] 107 % of control | dose: 400.0 mg/kg/injection, schedule: Q01DX001 (ip), vehicle: saline 92 % of control | [20] 91 % of control

C(=Nc1ccc2c3c(cccc13)-c1ccccc1-2)c1ccc2c(c1)OCO2
inactive: [1] 101 % of control | [2] 97 % of control | [3] 94 % of control

O=C(O)c1ccccc1Cc1cccs1
inactive: dose: 100.0 mg/kg/injection, schedule: Q01DX001 (ip), vehicle: saline with Tween-80 98 % of control | dose: 200.0 mg/kg/injection, schedule: Q01DX001 (ip), vehicle: saline with Tween-80 95 % of control | dose: 400.0 mg/kg/injection, schedule: Q01DX001 (ip), vehicle: saline with Tween-80 92 % of control

CC(=NC(Cc1ccccc1)C(=O)O)NC(Cc1ccccc1)C(=O)O (stereo unspecified)
inactive: [18] 106 % of control | [19] 101 % of control | [20] 100 % of control

Cn1nc2c(c1-c1ccc(O)cc1)CCCc1ccccc1-2
inactive: [15] 100 % of control | [16] 98 % of control | [17] 98 % of control

OC(CCCCC(O)(c1ccccc1)c1ccccc1)(c1ccccc1)c1ccccc1
inactive: [10] 89 % of control | [11] 94 % of control | [12] 96 % of control

CN1CCC23c4ccccc4NC1C21CCN(C)C3Nc2ccccc21
inactive: dose: 6.25 mg/kg/injection, schedule: Q01DX Z (ip), vehicle: saline 97 % of control | dose: 12.5 mg/kg/injection, schedule: Q01DX Z (ip), vehicle: saline 110 % of control | dose: 25.0 mg/kg/injection, schedule: Q01DX Z (ip), vehicle: saline 100 % of control | dose: 50.0 mg/kg/injection, schedule: Q01DX Z (ip), vehicle: saline 101 % of control | [13] 107 % of control | [14] 96 % of control

COc1ccc(/C=N/CCl)cc1
inactive: [10] 110 % of control | [11] 92 % of control | [12] 96 % of control
